Experimental data as given in PubChem BioAssay AID1963445 (Molecular Pharmacology Branch, DTP, NCI, 2024).

Tested on: MCF7 complex spheroid growth, % test/control
Assay: Anticancer human tumor MCF7 cell line growth inhibition [Asc];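 note: spheroids exposed to compounds for 7 days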;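 for viability, T/C: 100% = DMSO vehicle control wells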
Conditions: for IC50: curve of first compound; for viability, T/C: stronger effect = lower value
Outline: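 Tumor cells were grown as multicellular spheroids with stromal HUVEC and mesenchymal stem cells and treated singly or in combination. Concentrations fell in half-log steps from the clinical Cmax, or from 10 microM where none was known.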

`NC(=O)C(=Cn1cnc(-c2cc(C(F)(F)F)cc(C(F)(F)F)c2)n1)c1cncnc1` + Cc1c(S(C)(=O)=O)c(-c2cc(F)cc(N3CCN(c4ccc(NS(=O)(=O)c5ccc(NC(CCN6CCC(C(=O)OCCCP(=O)(O)O)CC6)CSc6ccccc6)c(S(=O)(=O)C(F)(F)F)c5)cc4)CC3)c2)c(-c2ccc(Cl)cc2)n1C(C)C gave an IC50 (second compound 0.0316 µM) of 76.6 nM, an IC50 (second compound 0.1 µM) of 51.6 nM and an IC50 (second compound 0.316 µM) of 35.1 nM. It also gave an IC50 (second compound 1 µM) of 39.8 nM, an IC50 (second compound 3.16 µM) of 27.3 nM and an IC50 (second compound 10 µM) of 62.6 nM. For the same compound, the viability, T/C (second compound 0.0316 µM, first compound 0.000949 µM) was 94.4%, the viability, T/C (second compound 0.0316 µM, first compound 0.003 µM) was 88% and the viability, T/C (second compound 0.0316 µM, first compound 0.00949 µM) was 89.3%. For the same compound, the viability, T/C (second compound 0.0316 µM, first compound 0.03 µM) was 89.7%, the viability, T/C (second compound 0.0316 µM, first compound 0.0949 µM) was 40.9% and the viability, T/C (second compound 0.0316 µM, first compound 0.3 µM) was 16.8%. It also gave a viability, T/C (second compound 0.1 µM, first compound 0.000949 µM) of 87.6%, a viability, T/C (second compound 0.1 µM, first compound 0.003 µM) of 82.8% and a viability, T/C (second compound 0.1 µM, first compound 0.00949 µM) of 81.8%. For the same compound, the viability, T/C (second compound 0.1 µM, first compound 0.03 µM) was 76.4%, the viability, T/C (second compound 0.1 µM, first compound 0.0949 µM) was 20.3% and the viability, T/C (second compound 0.1 µM, first compound 0.3 µM) was 15.7%. The viability, T/C (second compound 0.316 µM, first compound 0.000949 µM) was 90.5%, the viability, T/C (second compound 0.316 µM, first compound 0.003 µM) was 87.4% and the viability, T/C (second compound 0.316 µM, first compound 0.00949 µM) was 70.1%. For the same compound, the viability, T/C (second compound 0.316 µM, first compound 0.03 µM) was 60.9%, the viability, T/C (second compound 0.316 µM, first compound 0.0949 µM) was 19.7% and the viability, T/C (second compound 0.316 µM, first compound 0.3 µM) was 16.4%. It also gave a viability, T/C (second compound 1 µM, first compound 0.000949 µM) of 89%, a viability, T/C (second compound 1 µM, first compound 0.003 µM) of 75.8% and a viability, T/C (second compound 1 µM, first compound 0.00949 µM) of 73.8%. For the same compound, the viability, T/C (second compound 1 µM, first compound 0.03 µM) was 61%, the viability, T/C (second compound 1 µM, first compound 0.0949 µM) was 13.9% and the viability, T/C (second compound 1 µM, first compound 0.3 µM) was 18.8%. The viability, T/C (second compound 3.16 µM, first compound 0.000949 µM) was 70.4%, the viability, T/C (second compound 3.16 µM, first compound 0.003 µM) was 73.4% and the viability, T/C (second compound 3.16 µM, first compound 0.00949 µM) was 77%. It also gave a viability, T/C (second compound 3.16 µM, first compound 0.03 µM) of 47.9%, a viability, T/C (second compound 3.16 µM, first compound 0.0949 µM) of 22.5% and a viability, T/C (second compound 3.16 µM, first compound 0.3 µM) of 18.4%. It also gave a viability, T/C (second compound 10 µM, first compound 0.000949 µM) of 121%, a viability, T/C (second compound 10 µM, first compound 0.003 µM) of 131% and a viability, T/C (second compound 10 µM, first compound 0.00949 µM) of 102%. It also gave a viability, T/C (second compound 10 µM, first compound 0.03 µM) of 90.6%, a viability, T/C (second compound 10 µM, first compound 0.0949 µM) of 25.5% and a viability, T/C (second compound 10 µM, first compound 0.3 µM) of 16.8%.
